Laboratory results from ChEMBL document CHEMBL1201862, “PubChem BioAssay data set” (2004).
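In this assay, cells in 96-well plates receive the compound at five concentrations for 48 hours. Endpoints are linearly interpolated between the surrounding concentrations. GI50: concentration for 50% inhibition of growth.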 Calls of active or inactive are those of the source. Rule as the data show it: active = GI50 up to about 1.1 µM and inactive = higher.

Key:
Test in all cases: NCI-60 cell line screen, 48 h
COLO 205 = tested on: COLO 205
KM12 = tested on: KM12
SF-295 = tested on: SF-295
PC-3 = tested on: PC-3
SN12C = tested on: SN12C
SK-MEL-28 = tested on: SK-MEL-28
UO-31 = tested on: UO-31
786-0 = tested on: 786-0
TK-10 = tested on: TK-10
A549 = tested on: A549
SK-MEL-5 = tested on: SK-MEL-5
UACC-62 = tested on: UACC-62
NCI/ADR-RES = tested on: NCI/ADR-RES
SW-620 = tested on: SW-620
RPMI-8226 = tested on: RPMI-8226
MDA-N = tested on: MDA-N
MCF7 = tested on: MCF7
EKVX = tested on: EKVX
OVCAR-4 = tested on: OVCAR-4
HOP-92 = tested on: HOP-92
SK-MEL-2 = tested on: SK-MEL-2
MDA-MB-231 = tested on: MDA-MB-231
OVCAR-8 = tested on: OVCAR-8
T47D = tested on: T47D
SF-539 = tested on: SF-539
SK-OV-3 = tested on: SK-OV-3
Hs-578T = tested on: Hs-578T
K562 = tested on: K562
HCT-116 = tested on: HCT-116
A498 = tested on: A498
MDA-MB-435 = tested on: MDA-MB-435
U-251 = tested on: U-251
M14 = tested on: M14
HCC 2998 = tested on: HCC 2998
NCI-H460 = tested on: NCI-H460
HT-29 = tested on: HT-29
NCI-H23 = tested on: NCI-H23
MOLT-4 = tested on: MOLT-4
CAKI-1 = tested on: CAKI-1
UACC-257 = tested on: UACC-257
DU-145 = tested on: DU-145
OVCAR-3 = tested on: OVCAR-3
OVCAR-5 = tested on: OVCAR-5
LOX IMVI = tested on: LOX IMVI
IGROV-1 = tested on: IGROV-1
HL-60 = tested on: HL-60
SF-268 = tested on: SF-268
Malme-3M = tested on: Malme-3M
NCI-H522 = tested on: NCI-H522
ACHN = tested on: ACHN
SNB-19 = tested on: SNB-19
BT-549 = tested on: BT-549
HCT-15 = tested on: HCT-15
NCI-H226 = tested on: NCI-H226
CCRF-CEM = tested on: CCRF-CEM
HOP-62 = tested on: HOP-62
RXF 393 = tested on: RXF 393
SNB-75 = tested on: SNB-75

SMILES: O=C1CCC(=O)N1n1c(Cc2ccc(Cl)cc2)n[nH]c1=O
- GI50 (COLO 205): > 100 µM (inactive)
- GI50 (KM12): > 100 µM (inactive)
- GI50 (SF-295): > 100 µM (inactive)
- GI50 (PC-3): > 100 µM (inactive)
- GI50 (SN12C): > 100 µM (inactive)
- GI50 (SK-MEL-28): > 100 µM (inactive)
- GI50 (UO-31): > 100 µM (inactive)
- GI50 (786-0): > 100 µM (inactive)
- GI50 (TK-10): > 100 µM (inactive)
- GI50 (A549): > 100 µM (inactive)
- GI50 (SK-MEL-5): > 100 µM (inactive)
- GI50 (UACC-62): > 100 µM (inactive)
- GI50 (NCI/ADR-RES): > 100 µM (inactive)
- GI50 (SW-620): > 100 µM (inactive)
- GI50 (RPMI-8226): > 100 µM (inactive)
- GI50 (MDA-N): > 100 µM (inactive)
- GI50 (MCF7): > 100 µM (inactive)
- GI50 (EKVX): > 100 µM (inactive)
- GI50 (OVCAR-4): > 100 µM (inactive)
- GI50 (HOP-92): > 100 µM (inactive)
- GI50 (SK-MEL-2): > 100 µM (inactive)
- GI50 (MDA-MB-231): > 100 µM (inactive)
- GI50 (OVCAR-8): > 100 µM (inactive)
- GI50 (T47D): > 100 µM (inactive)
- GI50 (SF-539): > 100 µM (inactive)
- GI50 (SK-OV-3): > 100 µM (inactive)
- GI50 (Hs-578T): > 100 µM (inactive)
- GI50 (K562): > 100 µM (inactive)
- GI50 (HCT-116): > 100 µM (inactive)
- GI50 (A498): > 100 µM (inactive)
- GI50 (MDA-MB-435): > 100 µM (inactive)
- GI50 (U-251): > 100 µM (inactive)
- GI50 (M14): > 100 µM (inactive)
- GI50 (HCC 2998): > 100 µM (inactive)
- GI50 (NCI-H460): > 100 µM (inactive)
- GI50 (HT-29): > 100 µM (inactive)
- GI50 (NCI-H23): > 100 µM (inactive)
- GI50 (MOLT-4): > 100 µM (inactive)
- GI50 (CAKI-1): > 100 µM (inactive)
- GI50 (UACC-257): > 100 µM (inactive)
- GI50 (DU-145): > 100 µM (inactive)
- GI50 (OVCAR-3): > 100 µM (inactive)
- GI50 (OVCAR-5): > 100 µM (inactive)
- GI50 (LOX IMVI): > 100 µM (inactive)
- GI50 (IGROV-1): > 100 µM (inactive)
- GI50 (HL-60): > 100 µM (inactive)
- GI50 (SF-268): > 100 µM (inactive)
- GI50 (Malme-3M): > 100 µM (inactive)
- GI50 (NCI-H522): > 100 µM (inactive)
- GI50 (ACHN): > 100 µM (inactive)
- GI50 (SNB-19): > 100 µM (inactive)
- GI50 (BT-549): > 100 µM (inactive)
- GI50 (HCT-15): > 100 µM
- GI50 (NCI-H226): > 100 µM (inactive)

SMILES: O=c1c(C(c2ccc3c(c2)Cc2ccccc2-3)c2c(O)oc3ccccc3c2=O)c(O)oc2ccccc12
- GI50 (COLO 205): 20.4 µM (inactive)
- GI50 (KM12): 22.3 µM (inactive)
- GI50 (SF-295): 25.2 µM (inactive)
- GI50 (PC-3): 37.8 µM (inactive)
- GI50 (SN12C): 20.4 µM (inactive)
- GI50 (SK-MEL-28): 22.5 µM (inactive)
- GI50 (UO-31): 16.7 µM (inactive)
- GI50 (786-0): 25.9 µM (inactive)
- GI50 (TK-10): 56.5 µM (inactive)
- GI50 (A549): 19.5 µM (inactive)
- GI50 (SK-MEL-5): 24.5 µM (inactive)
- GI50 (UACC-62): 22.3 µM (inactive)
- GI50 (NCI/ADR-RES): > 100 µM (inactive)
- GI50 (SW-620): 29.8 µM (inactive)
- GI50 (RPMI-8226): 44.9 µM (inactive)
- GI50 (MDA-N): 19.9 µM (inactive)
- GI50 (MCF7): 22.9 µM (inactive)
- GI50 (CCRF-CEM): 40.4 µM (inactive)
- GI50 (EKVX): 48.9 µM (inactive)
- GI50 (OVCAR-4): 31.8 µM (inactive)
- GI50 (HOP-92): 19.1 µM (inactive)
- GI50 (SK-MEL-2): 31.9 µM (inactive)
- GI50 (MDA-MB-231): 28.2 µM (inactive)
- GI50 (OVCAR-8): > 100 µM (inactive)
- GI50 (T47D): 41.5 µM (inactive)
- GI50 (HOP-62): 32.5 µM (inactive)
- GI50 (SF-539): 21.4 µM (inactive)
- GI50 (SK-OV-3): 31.3 µM (inactive)
- GI50 (Hs-578T): 25.6 µM (inactive)
- GI50 (K562): 10 µM (inactive)
- GI50 (HCT-116): 35.6 µM (inactive)
- GI50 (A498): 38.5 µM (inactive)
- GI50 (MDA-MB-435): 31 µM (inactive)
- GI50 (U-251): 23.9 µM (inactive)
- GI50 (M14): 20.5 µM (inactive)
- GI50 (HCC 2998): 18.7 µM (inactive)
- GI50 (NCI-H460): 25.9 µM (inactive)
- GI50 (HT-29): > 100 µM (inactive)
- GI50 (NCI-H23): 29.4 µM (inactive)
- GI50 (MOLT-4): 40.6 µM (inactive)
- GI50 (RXF 393): 18.2 µM (inactive)
- GI50 (CAKI-1): 20.3 µM (inactive)
- GI50 (UACC-257): 34.6 µM (inactive)
- GI50 (DU-145): 33.6 µM (inactive)
- GI50 (OVCAR-3): 31 µM (inactive)
- GI50 (SNB-75): 20.7 µM (inactive)
- GI50 (OVCAR-5): 23.7 µM (inactive)
- GI50 (LOX IMVI): 26.3 µM (inactive)
- GI50 (IGROV-1): 39.3 µM (inactive)
- GI50 (HL-60): 29.2 µM (inactive)
- GI50 (SF-268): 23.9 µM (inactive)
- GI50 (Malme-3M): 26.2 µM (inactive)
- GI50 (NCI-H522): 21.9 µM (inactive)
- GI50 (ACHN): 23.9 µM (inactive)
- GI50 (SNB-19): 47.1 µM (inactive)
- GI50 (BT-549): 27.4 µM (inactive)
- GI50 (HCT-15): 22.2 µM
- GI50 (NCI-H226): > 100 µM (inactive)
